Reference: patent publication US11896593B2, “Sulfamate derivative compounds for use in treating or alleviating a psychiatric disorder” (Bio-Pharm Solutions Co., Ltd., priority 2020, dated 2024)
Marks after values point to notes of the source that are not given here.

Assays:
ICR male mice [1] = experiment: Forced swim test (mouse, mFST); format: in vivo; conditions: for Immobile posture time (sec.)/4 minutes, Treatment: mouse, administered orally 60 minutes before testing
Protocol: In order to determine the anti-depressant effect in rodents, the forced swim test was performed with rats and mice. The forced swim test causes an immobile state by forcing an animal to swim in a confined space. It reflects a state of despair giving up evading such a circumstance. ICR male mice (25 g to 30 g) and Wistar male rats (240 g to 260 g) were purchased from Samtako Bio Korea Co. (Korea) and allowed to acclimatize for 1 week before being tested in a controlled animal facility (temperature 22±2° C., humidity 55±5%). The test compound was dissolved in 20% Tween80 and administered orally 60 minutes before testing. The control group was provided with a corresponding vehicle. […] 15 minutes of forced swimming was performed a day before the experiment. On the day of the experiment, the animal was placed in the cylinder 60 minutes after the administration of the compound and was videotaped for 6 minutes. In the recorded videos, time during which the animal placed its head on the water and remained still without movement was measured based on the remaining 4 minutes excluding the first 2 minutes. It was evaluated that the lower the value of the immobile posture time, the greater the anti-depressant action (Reference; Porsolt R D, Le Pichon M. Jalfre M. 1997. Depression: a new animal model sensitive to antidepressant treatments. Nature. April 21; 266(5604):730-2.).
The result was shown as the standard error of measurement (SEM) of mean value t mean value. Behavioral data were analyzed by one-way ANOVA. For statistical significance, a value of <0.05 was taken (***p<0.001, **p=0.001˜0.01, *p=0.01˜0.05). Data management and statistics were performed using the Prism software of Windows version 4 (GraphPad Softward Co., San Diego, CA, USA).
Based on the results of Table 7, the ED50 value of the compound of Example 2 was calculated and shown in Table 7, and after 30 mg/kg and 60 mg/kg of the compounds of the other remaining examples were administered based on TD50 values to perform the forced swim tests, respectively, the administration doses with protected efficacy and protection % at the corresponding administration doses were shown in Table 7.

ICR male mice [2] = experiment: Open field test; format: in vivo; conditions: 60 minutes before testing
Protocol: This test is based on anxiety behaviors of rodents in the central area of an open field. When a mouse stayed in the central area for a longer period of time, it was deemed that there were more anti-stress, anti-depressant and anti-anxiety effects. ICR male mice (30 g to 35 g) were purchased from Orient Bio Korea Co. (Korea) and allowed to acclimatize for 1 week before being tested in a controlled animal facility (temperature 22±2° C., humidity 55±5%). When treatment began, the weight of the animals was 35±5% g. The test compound for oral administration was dissolved in 30% PEG400 and administered at a dose per body weight of 10 mL/kg 60 minutes before testing. The test compound for intraperitoneal administration was dissolved in 20% Tween80 and administered at a dose per body weight of 10 mL/kg 60 minutes before testing. The control group was provided with a corresponding vehicle. The open field was measured and analyzed by OPTO-VARIMEX instrument (Columbus Instruments, USA). The mouse was placed in the center of the open field, and its behavior was measured for 10 minutes. The open field was divided into 16 equal parts, and the middle area was established as the central area. Locomotor activity was measured using a spontaneous momentum (distance moved in cm), and measurement of anxiety behavior was obtained using the time spent in the central area as an index. In the open field experiment, when the time during which the mouse stayed in the central area was longer, it was evaluated that the symptoms of anxiety were alleviated, and when the time was shorter, the mouse was evaluated to have symptoms of anxiety (Reference; Prut L, Belzung C. 2003. The open field as a paradigm to measure the effects of drugs on anxiety-like behaviors: a review. Eur J Pharmacol. February 28; 463(1-3):3-33.).

For CC1(C)O[C@@H](COS(N)(=O)=O)[C@H](c2ccccc2Cl)O1 [Example 2, ((4S,5S)-5-(2-chlorophenyl)-2,2-dimethyl-1,3-dioxolan-4-yl)methyl sulfamate], the ED50 (ICR male mice [1]; mouse forced swim test, po) was 23.5 mg/kg, the “Immobile posture time (sec.)/4 minutes, Treatment” value (from here on “Immobile posture time”) (ICR male mice [1]; 10 mg/kg) was 105.7 ± 6.9** sec./4 minutes and the “Immobile posture time” value (ICR male mice [1]; 20 mg/kg) was 80.5 ± 8.6** sec./4 minutes. For the same compound, the “Immobile posture time” value (ICR male mice [1]; 40 mg/kg) was 61.2 ± 20.1** sec./4 minutes, the “Spontaneous momentum(cm)/10 minutes, Treatment” value (ICR male mice [2]; intraperitoneal, 10 mg/kg) was 5038.2 ± 455.9 cm/10 minutes and the “Time of staying in central area (sec.)/10 minutes, Treatment” value (from here on “Time of staying in central area”) (ICR male mice [2]; intraperitoneal, 10 mg/kg) was 31.6 ± 2.7 sec./10 minutes. For the same compound, the “Spontaneous momentum(cm)/10 minutes, Treatment” value (ICR male mice [2]; intraperitoneal, 30 mg/kg) was 4249.4 ± 402.4 cm/10 minutes, the “Time of staying in central area” value (ICR male mice [2]; intraperitoneal, 30 mg/kg) was 35.6 ± 3.1 sec./10 minutes and the “Spontaneous momentum(cm)/10 minutes, Treatment” value (ICR male mice [2]; oral, 10 mg/kg) was 4997.3 ± 491.6 cm/10 minutes. For the same compound, the “Time of staying in central area” value (ICR male mice [2]; oral, 10 mg/kg) was 36.6 ± 4.6 sec./10 minutes, the “Spontaneous momentum(cm)/10 minutes, Treatment” value (ICR male mice [2]; oral, 30 mg/kg) was 5033.5 ± 233.8 cm/10 minutes and the “Time of staying in central area” value (ICR male mice [2]; oral, 30 mg/kg) was 44.7 ± 3.5 sec./10 minutes.
